Like-named read-outs stand apart in the source and are kept apart here.
Key:
[1] = tested on: HCT15 cells (which express P-glycoprotein); test: Decrease of the IC50 of paclitaxel in HCT15 cells on adding a P-glycoprotein inhibitor; format: cell-based; details: lopinavir 5 μM added to paclitaxel
[2] = target: T1, P-glycoprotein (Homo sapiens, UniProt P08183); test: in vitro; details: Caco-2, pH 7.4
Experimental: (§1) The cells were grown and maintained in DMEM (Dulbecco's modified eagle's medium, purchased from Gibco/BRL, Grand Island, N.Y.) supplemented with 10% fetal bovine serum and 2 mM L-glutamine.
(§2) Cell cultures were maintained, antibiotic free, in a 37° C. incubator with 90% relative humidity in an atmosphere of 5% CO2. The cells were maintained in 10 cm^2 stock plates and seeded onto polycarbonate Transwell™ HTS filter inserts at 4×10^5 cells/mL. The cells were cultured on the filters for about 27-30 days. Caco-2 cells having passages between 40 and 110 were used for the studies.
(§3) The integrity of the cell monolayers was determined by measuring the paracellular transepithelial transport of the integrity marker, Lucifer yellow, which is commercially available from Sigma Chemical of St. Louis, Mo.
(§4) Stock concentrations (C0) of each of the P-glycoprotein inhibitors were treated similarly as dosed cells and were retained and sampled for starting dose. Aliquots for both the AP and the BL sides of the cell monolayers were taken at 2 hours, and such aliquots were analyzed by LSC Calculation of the apparent permeability by using the Artusson equation shown above. For the triplicate wells the P(app) is the mean of the three individual P(app) values for each well.

[3] = tested on: H460/T800 cells (which over express P-glycoprotein); test: Reduction of the IC50 of paclitaxel in paclitaxel resistant H460/T800 cells on adding lopinavir; format: cell-based
[4] = target: T1, P-glycoprotein
Experimental: as §1, §2, §3, §4

[5] = tested on: HCT15 cells (which express P-glycoprotein); test: Efflux of radiolabelled lopinavir, ritonavir and paclitaxel from HCT15 cells; format: cell-based; details: 1 μM loaded for 1 hour, FIG. 1
Experimental: The medium was aspirated and the cells were washed with PBS (phosphate buffered saline, available from Life Technologies, Rockvile, Md.). At harvest, the cells were washed once with PBS and the pellets were dissolved in 550 μl of 1N NaOH. The total protein was determined by Bio-Rad assay (available from Bio-Rad of Hercules, Ca.) and the total radioactivity was determined by LSC. Following normalization of the protein amount, cpm/μg protein for each time point was compared to the peak drug time 0.

[6] = target: T1, P-glycoprotein; test: in vitro; details: Caco-2
Experimental: as §1, §2, §3
(§5) The transport of vinblastine, which is the pharmaceutically active agent in these studies, was allowed to proceed for 120 minutes at 37° C. Stock concentrations (C0) of each of the P-glycoprotein inhibitors were treated similarly as dosed cells and were retained and sampled for starting dose. Aliquots for both the AP and the BL sides of the cell monolayers were taken at 2 hours, and such aliquots were analyzed by liquid scintillation counting (LSC) using a Packard Liquid Scintillation Counting machine. Calculation of the apparent permeability was done by using the following Artusson equation: [formula]
(§6) where dQ/dT is the flux rate (μg/sec), C0 is concentration of the starting material at t=0 (μg/mL), and A=the area of the monolayer (cm^2). For the triplicate wells the P(app) is the mean of the three individual P(app) values for each well.

[7] = target: T1, P-glycoprotein; test: Vinblastine transepithelial bi-directional transport across Caco-2 cell monolayers with or without P-glycoprotein inhibitors; details: Run 2, vinblastine 5 μM, inhibitor 10 μM
Experimental: as §1, §2, §3, §5, §6

[8] = Table 2B (printed Run 1), Caco-2, lopinavir or ritonavir 5 μM, CyA 10 μM, 120 minutes at 37° C., mean ± SD of triplicate wells
[9] = 120 minutes at 37° C., mean ± SD of triplicate wells

T1 sequence (P08183 whole entry): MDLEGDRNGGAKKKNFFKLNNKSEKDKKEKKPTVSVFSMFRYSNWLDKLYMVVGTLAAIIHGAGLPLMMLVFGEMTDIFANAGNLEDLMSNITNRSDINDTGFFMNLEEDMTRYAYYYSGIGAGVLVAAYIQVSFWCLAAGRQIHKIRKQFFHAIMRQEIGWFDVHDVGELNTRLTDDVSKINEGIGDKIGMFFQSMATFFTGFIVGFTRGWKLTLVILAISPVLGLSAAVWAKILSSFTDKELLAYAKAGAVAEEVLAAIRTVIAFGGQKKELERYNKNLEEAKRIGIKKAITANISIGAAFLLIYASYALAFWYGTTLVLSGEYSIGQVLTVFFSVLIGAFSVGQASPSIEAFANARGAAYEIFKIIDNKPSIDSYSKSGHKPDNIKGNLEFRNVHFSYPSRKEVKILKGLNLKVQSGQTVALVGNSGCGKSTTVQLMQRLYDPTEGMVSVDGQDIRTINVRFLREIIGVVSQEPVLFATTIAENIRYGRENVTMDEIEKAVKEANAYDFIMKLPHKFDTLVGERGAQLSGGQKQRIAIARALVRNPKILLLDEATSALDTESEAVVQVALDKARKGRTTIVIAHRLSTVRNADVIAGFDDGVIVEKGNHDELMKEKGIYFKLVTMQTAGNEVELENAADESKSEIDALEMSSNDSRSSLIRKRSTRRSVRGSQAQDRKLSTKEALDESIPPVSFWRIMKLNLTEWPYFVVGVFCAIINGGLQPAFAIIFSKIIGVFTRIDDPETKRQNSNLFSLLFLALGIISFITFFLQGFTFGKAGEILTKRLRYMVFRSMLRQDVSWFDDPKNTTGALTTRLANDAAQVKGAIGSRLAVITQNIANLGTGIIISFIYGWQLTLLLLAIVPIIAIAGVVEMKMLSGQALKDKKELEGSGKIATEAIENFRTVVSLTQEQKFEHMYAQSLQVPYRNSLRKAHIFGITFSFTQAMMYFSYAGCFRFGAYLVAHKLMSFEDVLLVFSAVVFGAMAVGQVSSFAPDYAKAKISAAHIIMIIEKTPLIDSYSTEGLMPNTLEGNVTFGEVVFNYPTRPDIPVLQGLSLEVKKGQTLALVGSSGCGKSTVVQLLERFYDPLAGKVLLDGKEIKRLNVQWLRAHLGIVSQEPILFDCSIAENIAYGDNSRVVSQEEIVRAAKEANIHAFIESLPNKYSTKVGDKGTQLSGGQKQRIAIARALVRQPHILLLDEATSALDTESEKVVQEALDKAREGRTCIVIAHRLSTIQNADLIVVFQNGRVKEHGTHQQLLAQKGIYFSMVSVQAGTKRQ

SMILES: Cc1cccc(C)c1OCC(=O)N[C@@H](Cc1ccccc1)[C@@H](O)C[C@H](Cc1ccccc1)NC(=O)[C@H](C(C)C)N1CCCNC1=O (relative stereo) [Lopinavir, [1S-[1R*,(R*),3R*,4R*]]-N-[4-[[(2,6-dimethylphenoxy)acetyl]amino]-3-hydroxy-5-phenyl-1-(phenylmethyl)pentyl]tetrahydro-alpha-(1-methylethyl)-2-oxo-(2H)-pyrimidine acetamide]
- decrease in the IC50 of paclitaxel [1]: 9 fold
- Papp A→B at 120 min, 5 μM [2]: 10.7 ± 0.58 ×10⁻⁶ cm/s
- Papp B→A at 120 min, 5 μM [2]: 9.55 ± 2.1 ×10⁻⁶ cm/s
- reduction of the IC50 of paclitaxel ([3]; lopinavir 5 μM with paclitaxel): 11 fold
- reduction of the IC50 of paclitaxel ([3]; lopinavir 10 μM with paclitaxel): 21 fold
- substrate for P-glycoprotein (conclusion from Tables 2A and 2B) ([4]; Caco-2 bi-directional permeability with or without cyclosporin A): not a substrate for P-glycoprotein
- P(app) AP-BL [4, 8]: 18.72 ± 1.04 1 × 10(−6) cm/sec
- P(app) BL-AP [4, 8]: 17.42 ± 4.37 1 × 10(−6) cm/sec
- compound remained in the HCT15 cells ([5]; after 60 minutes): approximately 80%

SMILES: CC(C)c1nc(CN(C)C(=O)N[C@H](C(=O)N[C@@H](Cc2ccccc2)C[C@H](O)[C@H](Cc2ccccc2)NC(=O)OCc2cncs2)C(C)C)cs1 (relative stereo) [Ritonavir, [5S-(5R*,8R*,10R*,11R*)]-10-hydroxy-2-methyl-5-(1-methylethyl)-1-[2-(1-methylethyl)-4-thiazolyl]-3,6-dioxo-8,11-bis(phenylmethyl)-2,4,7,12-tetraazatridecan-13-oic acid, 5-thiazolylmethyl ester]
- elimination (efflux) by the HCT15 cells ([5]; in 15 minutes): rapidly eliminated

SMILES: CC[C@]1(O)C[C@@H]2CN(CCc3c([nH]c4ccccc34)[C@@](C(=O)OC)(c3cc4c(cc3OC)N(C)[C@H]3[C@@](O)(C(=O)OC)[C@H](OC(C)=O)[C@]5(CC)C=CCN6CC[C@]43[C@@H]65)C2)C1 [Vinblastine, vinblastine]
- Papp A→B at 120 min, 5 μM [6]: 0.91 ± 0.07 ×10⁻⁶ cm/s
- Papp B→A at 120 min, 5 μM [6]: 17.7 ± 0.39 ×10⁻⁶ cm/s
- efflux ratio at 120 min, 5 μM [6]: 19.5
- Ratio (BL-AP/AP-BL) [7]: 30.02
- P(app) AP-BL [7, 9]: 0.49 ± 0.00 1 × 10(−6) cm/sec
- P(app) BL-AP [7, 9]: 14.71 ± 3.33 1 × 10(−6) cm/sec

From patent publication US20020198160A1, “Compositions and methods for enhancing the bioavailability of pharmaceutical agents” (priority 2001, published 2002)
